In ChEMBL document CHEMBL1201862, “PubChem BioAssay data set” (2004):
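A five-concentration, 48-hour dose response in 96-well plates underlies each endpoint, interpolated linearly between surrounding concentrations. GI50: concentration for 50% inhibition of growth.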 Calls of active or inactive are those of the source. Cut-off read from the data, not from the text of the source: active = GI50 up to about 1.1 µM and inactive = higher.

Legend:
Assay in all cases: NCI tumour cell line growth inhibition, 48 h
786-0 = system: 786-0
UO-31 = system: UO-31
SR = system: SR
SF-268 = system: SF-268
Hs-578T = system: Hs-578T
UACC-257 = system: UACC-257
A498 = system: A498
TK-10 = system: TK-10
OVCAR-3 = system: OVCAR-3
Malme-3M = system: Malme-3M
BT-549 = system: BT-549
SK-OV-3 = system: SK-OV-3
ACHN = system: ACHN
CAKI-1 = system: CAKI-1
PC-3 = system: PC-3
MDA-MB-231 = system: MDA-MB-231
UACC-62 = system: UACC-62
A549 = system: A549
CCRF-CEM = system: CCRF-CEM
HL-60 = system: HL-60

SMILES | GI50 (786-0) | GI50 (UO-31) | GI50 (SR) | GI50 (SF-268) | GI50 (Hs-578T) | GI50 (UACC-257) | GI50 (A498) | GI50 (TK-10) | GI50 (OVCAR-3) | GI50 (Malme-3M) | GI50 (BT-549) | GI50 (SK-OV-3) | GI50 (ACHN) | GI50 (CAKI-1) | GI50 (PC-3) | GI50 (MDA-MB-231) | GI50 (UACC-62) | GI50 (A549) | GI50 (CCRF-CEM) | GI50 (HL-60)
CCOC(=O)[C@@]1(C(C)=O)CC(C)=C(C)C[S@@+]1[O-] | > 100 µM (inactive) | > 100 µM (inactive) | > 100 µM (inactive) | > 100 µM (inactive) | > 100 µM (inactive) | > 100 µM (inactive) | > 100 µM (inactive) | > 100 µM (inactive) | > 100 µM (inactive) | > 100 µM (inactive) | > 100 µM (inactive) | > 100 µM (inactive) | > 100 µM (inactive) | > 100 µM (inactive) | > 100 µM (inactive) | > 100 µM (inactive) | > 100 µM (inactive) | > 100 µM (inactive) | – | –
C[C@@H](C[C@@H](O)[C@H](O)C(C)(C)O)[C@H]1CC=C2[C@]3(C)[C@H](O)C[C@H]4C(C)(C)[C@H](O)CC[C@]4(C)[C@H]3CC[C@@]21C | 15 µM (inactive) | 15.4 µM (inactive) | 21.9 µM (inactive) | 13.4 µM (inactive) | 22.5 µM (inactive) | 16.1 µM (inactive) | 15.2 µM (inactive) | 18 µM (inactive) | 13.3 µM (inactive) | 14.3 µM (inactive) | 17.1 µM (inactive) | – | 14.3 µM (inactive) | 16.4 µM (inactive) | 14.3 µM (inactive) | 13.8 µM (inactive) | – | 12.7 µM (inactive) | 18 µM (inactive) | 14.2 µM (inactive)
O=C(CC(C(=O)O)N1CCOCC1)c1ccccc1 (stereo not drawn) | 15.1 µM (inactive) | – | 16.4 µM (inactive) | 19.5 µM (inactive) | 34.1 µM (inactive) | 13.4 µM (inactive) | 25.1 µM (inactive) | 15.9 µM (inactive) | 20 µM (inactive) | 18.8 µM (inactive) | 18.6 µM (inactive) | 37 µM (inactive) | 16 µM (inactive) | – | 16.5 µM (inactive) | 15.3 µM (inactive) | 14.6 µM (inactive) | 57.8 µM (inactive) | 3.37 µM (inactive) | 20.6 µM (inactive)
CCN(CC)C(=S)SC(=S)N(CC)CC | 23.7 µM (inactive) | 30.3 µM (inactive) | 0.0482 µM (active) | 41.9 µM (inactive) | 50.7 µM (inactive) | 41.6 µM (inactive) | 47.3 µM (inactive) | > 51.2 µM (inactive) | 37 µM (inactive) | 23.3 µM (inactive) | 27.3 µM (inactive) | > 100 µM (inactive) | 35.4 µM (inactive) | 36.1 µM (inactive) | 38.1 µM (inactive) | 32.9 µM (inactive) | 20.8 µM (inactive) | 28.5 µM (inactive) | – | 29.5 µM (inactive)
O=C(NCCCCNCCCNC(=O)c1ccccc1)c1ccccc1 | > 100 µM (inactive) | > 100 µM (inactive) | > 100 µM (inactive) | > 100 µM (inactive) | > 100 µM (inactive) | > 100 µM (inactive) | > 100 µM (inactive) | > 100 µM (inactive) | > 100 µM (inactive) | – | > 100 µM (inactive) | > 100 µM (inactive) | > 100 µM (inactive) | – | > 100 µM (inactive) | > 100 µM (inactive) | > 100 µM (inactive) | > 100 µM (inactive) | > 100 µM (inactive) | > 100 µM (inactive)
O=C(/C=C/c1cccc(Oc2ccccc2)c1)NCc1ccc(C(=O)NCCc2ccccc2)cc1 | 24.1 µM (inactive) | > 100 µM (inactive) | > 100 µM (inactive) | 33.5 µM (inactive) | > 100 µM (inactive) | > 100 µM (inactive) | > 100 µM (inactive) | > 100 µM (inactive) | > 100 µM (inactive) | > 100 µM (inactive) | > 100 µM (inactive) | > 100 µM (inactive) | > 100 µM (inactive) | > 100 µM (inactive) | > 100 µM (inactive) | 82.4 µM (inactive) | > 100 µM (inactive) | > 100 µM (inactive) | – | –
Cn1c2ccccc2c(=NNc2ccc(S(N)(=O)=O)cc2)c2ccccc21 | 21 µM (inactive) | 10.7 µM (inactive) | 8.81 µM (inactive) | 18.1 µM (inactive) | 32.7 µM (inactive) | 17.1 µM (inactive) | – | 15 µM (inactive) | 19.5 µM (inactive) | 17.9 µM (inactive) | 8.39 µM (inactive) | 20.2 µM (inactive) | 8.05 µM (inactive) | 15.7 µM (inactive) | 9.75 µM (inactive) | 9.23 µM (inactive) | 14.7 µM (inactive) | 11.7 µM (inactive) | 4.58 µM (inactive) | 2.7 µM (inactive)
CCN(C(=O)/C=C/c1ccco1)c1ccccc1 | > 100 µM (inactive) | > 100 µM (inactive) | 46.2 µM (inactive) | > 100 µM (inactive) | > 100 µM (inactive) | > 100 µM (inactive) | > 100 µM (inactive) | > 100 µM (inactive) | > 100 µM (inactive) | – | > 100 µM (inactive) | > 100 µM (inactive) | > 100 µM (inactive) | > 100 µM (inactive) | > 100 µM (inactive) | > 100 µM (inactive) | > 100 µM (inactive) | > 100 µM (inactive) | > 100 µM (inactive) | 21.9 µM (inactive)
Cc1cn([C@H]2C[C@](C)(CO)N(C)O2)c(=O)[nH]c1=O | > 100 µM (inactive) | > 100 µM (inactive) | > 100 µM (inactive) | > 100 µM (inactive) | > 100 µM (inactive) | > 100 µM (inactive) | > 100 µM (inactive) | > 100 µM (inactive) | – | > 100 µM (inactive) | > 100 µM (inactive) | > 100 µM (inactive) | > 100 µM (inactive) | > 100 µM (inactive) | > 100 µM (inactive) | > 100 µM (inactive) | > 100 µM (inactive) | > 100 µM (inactive) | – | > 100 µM (inactive)
Cc1cccc2c(=O)c3c(O)cc4c(c3n(C)c12)C=CC(C)(C)O4 | 71.8 µM (inactive) | – | 10.4 µM (inactive) | > 100 µM (inactive) | 39.4 µM (inactive) | 60.1 µM (inactive) | > 100 µM (inactive) | > 100 µM (inactive) | > 100 µM (inactive) | > 100 µM (inactive) | 23.1 µM (inactive) | > 100 µM (inactive) | > 100 µM (inactive) | > 100 µM (inactive) | 91.8 µM (inactive) | > 100 µM (inactive) | > 100 µM (inactive) | 77.6 µM (inactive) | 22.5 µM (inactive) | 45.7 µM (inactive)
CCOC(=O)C(=Cc1ccccc1Br)C(=O)OCC | 3.05 µM (inactive) | 2.25 µM (inactive) | 0.208 µM (active) | 3.11 µM (inactive) | 3.4 µM (inactive) | 3.58 µM (inactive) | 2.03 µM (inactive) | 3.47 µM (inactive) | 2.07 µM (inactive) | 3.48 µM (inactive) | 2.51 µM (inactive) | – | 2.59 µM (inactive) | 2.53 µM (inactive) | 2.93 µM (inactive) | 6.41 µM (inactive) | 1.72 µM (inactive) | 4 µM (inactive) | 9.23 µM (inactive) | 0.585 µM (active)
